Laboratory results taken from patent US20240317721A1, “PYRAZOLYL DERIVATIVES AS INHIBITORS OF THE KRAS MUTANT PROTEIN” (NOVARTIS AG, priority 2021, published 2024).

target: KRasG12C (M1-K169, biotinylated on the N-terminus) (Homo sapiens (Human), UniProt P01116, G12C); assay: Covalent competition assay: scintillation proximity assay (SPA) quantifying covalent modification of KRASG12C; format: binding; conditions: competition with radiolabeled covalent probe (Compound B/Compound A), 2 hours incubation, 10 nM KRasG12C
Outline: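 Test compounds compete with a radiolabeled covalent probe for modification of N-terminally biotinylated KRasG12C(M1-K169):GDP, final 10 nM protein, 25 nM radio-ligand, 475 nM unlabelled ligand, 2 h with agitation in 20 mM Tris-HCl pH 7.5, 150 mM NaCl, 0.1 mM MgCl2, 0.01% Tween-20.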

| Compound | IC50 [µM] |
| --- | --- |
| C=CC(=O)N1CC2(CC(n3nc(N4CC[C@@H](N(C)C(C)=O)CC4(C)C)c(-c4c(Cl)c(C)cc5[nH]ncc45)c3C)C2)C1 (single isomer, unassigned) [Example 69b] | 0.015 |
| C=CC(=O)N1CC2(CC(n3nc(N4CC[C@H](N(C)C(C)=O)CC4(C)C)c(-c4c(Cl)c(C)cc5[nH]ncc45)c3C)C2)C1 (single isomer, unassigned) [Example 70a] | 0.287 |
| C=CC(=O)N1CC2(CC(n3nc(N4CC[C@H](N(C)C(C)=O)CC4(C)C)c(-c4c(Cl)c(C)cc5[nH]ncc45)c3C)C2)C1 (single isomer, unassigned) [Example 70b] | 1 |
| C=CC(=O)N1CC2(CC(n3nc(N4CCN(CCOC)CC45CCC5)c(-c4c(Cl)c(C)cc5[nH]ncc45)c3C)C2)C1 (single isomer, unassigned) [Example 71a, 1-(6-(4-(5-chloro-6-methyl-1H-indazol-4-yl)-3-(8-(2-methoxyethyl)-5,8-diazaspiro[3.5]nonan-5-yl)-5-methyl-1H-pyrazol-1-yl)-2-azaspiro[3.3]heptan-2-yl)prop-2-en-1-one] | 1.2 |
| C=CC(=O)N1CC2(CC(n3nc(N4CCN(CCOC)CC45CCC5)c(-c4c(Cl)c(C)cc5[nH]ncc45)c3C)C2)C1 (single isomer, unassigned) [Example 71b, 1-(6-(4-(5-chloro-6-methyl-1H-indazol-4-yl)-3-(8-(2-methoxyethyl)-5,8-diazaspiro[3.5]nonan-5-yl)-5-methyl-1H-pyrazol-1-yl)-2-azaspiro[3.3]heptan-2-yl)prop-2-en-1-one] | 0.025 |
| C=CC(=O)N1CC2(CC(n3nc(N4CCN(C5COC5)CC45CCC5)c(-c4c(Cl)c(Cl)cc5[nH]ncc45)c3C)C2)C1 (single isomer, unassigned) [Example 72a] | 3.1 |
| C=CC(=O)N1CC2(CC(n3nc(N4CCN(C5COC5)CC45CCC5)c(-c4c(Cl)c(Cl)cc5[nH]ncc45)c3C)C2)C1 (single isomer, unassigned) [Example 72b] | 0.007 |
| C=CC(=O)N1CC2(CC(n3nc(N4CCN(C5COC5)CC4(C)C)c(-c4c(Cl)c(Cl)cc5[nH]ncc45)c3C)C2)C1 (single isomer, unassigned) [Example 73a, 1-(6-(4-(5,6-dichloro-1H-indazol-4-yl)-3-(2,2-dimethyl-4-(oxetan-3-yl)piperazin-1-yl)-5-methyl-1H-pyrazol-1-yl)-2-azaspiro[3.3]heptan-2-yl)prop-2-en-1-one] | > 5 |
| C=CC(=O)N1CC2(CC(n3nc(N4CCN(C5COC5)CC4(C)C)c(-c4c(Cl)c(Cl)cc5[nH]ncc45)c3C)C2)C1 (single isomer, unassigned) [Example 73b, 1-(6-(4-(5,6-dichloro-1H-indazol-4-yl)-3-(2,2-dimethyl-4-(oxetan-3-yl)piperazin-1-yl)-5-methyl-1H-pyrazol-1-yl)-2-azaspiro[3.3]heptan-2-yl)prop-2-en-1-one] | 0.015 |
| C=CC(=O)N1CC2(CC(n3nc(N4CCC(N5C6CCC5COC6)CC4(C)C)c(-c4c(Cl)c(C)cc5[nH]ncc45)c3C)C2)C1 (single isomer, unassigned) [Example 74b] | 0.026 |
| C=CC(=O)N1CC2(CC(n3nc(N4CCC(N5C6CCC5COC6)CC4(C)C)c(-c4c(Cl)c(C)cc5[nH]ncc45)c3C)C2)C1 (single isomer, unassigned) [Example 75b] | 0.228 |
| C=CC(=O)N1CC2(CC(n3nc(N4CCN(CCOC)CC45CCC5)c(-c4c(Cl)c(Cl)cc5[nH]ncc45)c3C)C2)C1 (single isomer, unassigned) [Example 76a, 1-(6-(4-(5,6-dichloro-1H-indazol-4-yl)-3-(8-(2-methoxyethyl)-5,8-diazaspiro[3.5]nonan-5-yl)-5-methyl-1H-pyrazol-1-yl)-2-azaspiro[3.3]heptan-2-yl)prop-2-en-1-one] | 0.351 |
| C=CC(=O)N1CC2(CC(n3nc(N4CCN(CCOC)CC45CCC5)c(-c4c(Cl)c(Cl)cc5[nH]ncc45)c3C)C2)C1 (single isomer, unassigned) [Example 76b, 1-(6-(4-(5,6-dichloro-1H-indazol-4-yl)-3-(8-(2-methoxyethyl)-5,8-diazaspiro[3.5]nonan-5-yl)-5-methyl-1H-pyrazol-1-yl)-2-azaspiro[3.3]heptan-2-yl)prop-2-en-1-one] | 0.01 |
| CC#CC(=O)N1CC2(CC(n3nc(N4CCN(C5COC5)CC45CCC5)c(-c4c(Cl)c(C)cc5[nH]ncc45)c3C)C2)C1 (single isomer, unassigned) [Example 78a, 1-(6-(4-(5-chloro-6-methyl-1H-indazol-4-yl)-5-methyl-3-(8-(oxetan-3-yl)-5,8-diazaspiro[3.5]nonan-5-yl)-1H-pyrazol-1-yl)-2-azaspiro[3.3]heptan-2-yl)but-2-yn-1-one] | 1.3 |
| CC#CC(=O)N1CC2(CC(n3nc(N4CCN(C5COC5)CC45CCC5)c(-c4c(Cl)c(C)cc5[nH]ncc45)c3C)C2)C1 (single isomer, unassigned) [Example 78b, 1-(6-(4-(5-chloro-6-methyl-1H-indazol-4-yl)-5-methyl-3-(8-(oxetan-3-yl)-5,8-diazaspiro[3.5]nonan-5-yl)-1H-pyrazol-1-yl)-2-azaspiro[3.3]heptan-2-yl)but-2-yn-1-one] | > 5 |
| C=CC(=O)N1CC2(CC(n3nc(N4CCN(C5COC5)CC45CCC5)c(-c4c(C)c(Cl)cc5[nH]ncc45)c3C)C2)C1 (single isomer, unassigned) [Example 79a, 1-(6-(4-(6-chloro-5-methyl-1H-indazol-4-yl)-5-methyl-3-(8-(oxetan-3-yl)-5,8-diazaspiro[3.5]nonan-5-yl)-1H-pyrazol-1-yl)-2-azaspiro[3.3]heptan-2-yl)prop-2-en-1-one] | > 5 |
| C=CC(=O)N1CC2(CC(n3nc(N4CCN(C5COC5)CC45CCC5)c(-c4c(C)c(Cl)cc5[nH]ncc45)c3C)C2)C1 (single isomer, unassigned) [Example 79b, 1-(6-(4-(6-chloro-5-methyl-1H-indazol-4-yl)-5-methyl-3-(8-(oxetan-3-yl)-5,8-diazaspiro[3.5]nonan-5-yl)-1H-pyrazol-1-yl)-2-azaspiro[3.3]heptan-2-yl)prop-2-en-1-one] | 0.018 |
| C=CC(=O)N1CC2(CC(n3nc(N4CCC(N(CCOC)CCOC)CC45CCC5)c(-c4c(Cl)c(Cl)cc5[nH]ncc45)c3C)C2)C1 (single isomer, unassigned) [Example 80a, 1-(6-(3-(8-(bis(2-methoxyethyl)amino)-5-azaspiro[3.5]nonan-5-yl)-4-(5,6-dichloro-1H-indazol-4-yl)-5-methyl-1H-pyrazol-1-yl)-2-azaspiro[3.3]heptan-2-yl)prop-2-en-1-one] | > 5 |
| C=CC(=O)N1CC2(CC(n3nc(N4CCC(N(CCOC)CCOC)CC45CCC5)c(-c4c(Cl)c(Cl)cc5[nH]ncc45)c3C)C2)C1 (single isomer, unassigned) [Example 80b, 1-(6-(3-(8-(bis(2-methoxyethyl)amino)-5-azaspiro[3.5]nonan-5-yl)-4-(5,6-dichloro-1H-indazol-4-yl)-5-methyl-1H-pyrazol-1-yl)-2-azaspiro[3.3]heptan-2-yl)prop-2-en-1-one] | 0.007 |
| C=CC(=O)N1CC2(CC(n3nc(N4CCN(C[C@@H]5COCCO5)C[C@]4(C)CC)c(-c4c(Cl)cnc5[nH]ncc45)c3C)C2)C1 (single isomer, unassigned) [Example 81a] | > 5 |
| C=CC(=O)N1CC2(CC(n3nc(N4CCN(C[C@@H]5COCCO5)C[C@]4(C)CC)c(-c4c(Cl)cnc5[nH]ncc45)c3C)C2)C1 (single isomer, unassigned) [Example 81b] | 0.585 |
| C=CC(=O)N1CC2(CC(n3nc(N4CCS(=O)(=O)CC4(C)C)c(-c4c(Cl)c(C)cc5[nH]ncc45)c3C)C2)C1 (single isomer, unassigned) [Example 82a, 1-(6-(4-(5-chloro-6-methyl-1H-indazol-4-yl)-3-(3,3-dimethyl-1,1-dioxidothiomorpholino)-5-methyl-1H-pyrazol-1-yl)-2-azaspiro[3.3]heptan-2-yl)prop-2-en-1-one] | 50 |
| C=CC(=O)N1CC2(CC(n3nc(N4CCS(=O)(=O)CC4(C)C)c(-c4c(Cl)c(C)cc5[nH]ncc45)c3C)C2)C1 (single isomer, unassigned) [Example 82b, 1-(6-(4-(5-chloro-6-methyl-1H-indazol-4-yl)-3-(3,3-dimethyl-1,1-dioxidothiomorpholino)-5-methyl-1H-pyrazol-1-yl)-2-azaspiro[3.3]heptan-2-yl)prop-2-en-1-one] | 0.831 |
| C=CC(=O)N1CC2(CC(n3nc(N4CCC(N5C[C@@H]6C[C@H]5CO6)CC4(C)C)c(-c4c(Cl)c(C)cc5[nH]ncc45)c3C)C2)C1 (single isomer, unassigned) [Example 83a] | > 5 |
| C=CC(=O)N1CC2(CC(n3nc(N4CCC(N5C[C@@H]6C[C@H]5CO6)CC4(C)C)c(-c4c(Cl)c(C)cc5[nH]ncc45)c3C)C2)C1 (single isomer, unassigned) [Example 83b] | 0.026 |
| C=CC(=O)N1CC2(CC(n3nc(N4CCC(N(C)[C@@H]5CCOC5)CC4(C)C)c(-c4c(Cl)c(C)cc5[nH]ncc45)c3C)C2)C1 (single isomer, unassigned) [Example 84a] | > 5 |
| C=CC(=O)N1CC2(CC(n3nc(N4CCC(N(C)[C@@H]5CCOC5)CC4(C)C)c(-c4c(Cl)c(C)cc5[nH]ncc45)c3C)C2)C1 (single isomer, unassigned) [Example 84b] | 0.014 |
| C=CC(=O)N1CC2(CC(n3nc(N4CCN(C[C@@H]5COCCO5)C[C@]4(C)CCOC)c(-c4c(Cl)c(C)cc5[nH]ncc45)c3C)C2)C1 (single isomer, unassigned) [Example 85a] | 5 |
| C=CC(=O)N1CC2(CC(n3nc(N4CCN(C[C@@H]5COCCO5)C[C@]4(C)CCOC)c(-c4c(Cl)c(C)cc5[nH]ncc45)c3C)C2)C1 (single isomer, unassigned) [Example 85b] | 0.008 |
| C=CC(=O)N1CC2(CC(n3nc(N4CCN(C5COC5)C[C@]4(C)CCOC)c(-c4c(Cl)c(C)cc5[nH]ncc45)c3C)C2)C1 (single isomer, unassigned) [Example 86a] | 2.3 |
